Common to all, as to format: in vivo
The subject of test [1] is Setaria faberi (SETFA). As to the kind of experiment: Pre-emergence herbicidal glasshouse test, Setaria faberi. Particulars: rate 250 g/ha, evaluated after 13 days, scale 100 = total damage to plant, 0 = no damage; for pest or weed control at 250 g/ha: Setaria faberi, 312 h. As for the experimental part: (§1) Seeds of a variety of test species were sown in standard soil in pots. After cultivation for one day (pre-emergence) or after 8 days cultivation (post-emergence) under controlled conditions in a glasshouse (at 24/16° C., day/night; 14 hours light; 65% humidity), the plants were sprayed with an aqueous spray solution derived from the formulation of the technical active ingredient in acetone/water (50:50) solution containing 0.5% Tween 20 (polyoxyethelyene sorbitan monolaurate, CAS RN 9005-64-5). The test plants were then grown in a glasshouse under controlled conditions in a glasshouse (at 24/16° C., day/night; 14 hours light; 65% humidity) and watered twice daily. After 13 days for pre and post-emergence, the test was evaluated ([…] to plant; 0=no damage to plant).
(§2) Setaria faberi (SETFA), Lolium perenne (LOLPE), Alopecurus myosuroides (ALOMY), Echinochloa crus-galli (ECHCG) and Avena fatua (AVEFA).

In test [2] the test system is Alopecurus myosuroides (ALOMY). Put plainly: Pre-emergence herbicidal glasshouse test, Alopecurus myosuroides. Particulars: rate 250 g/ha, evaluated after 13 days, scale 100 = total damage to plant, 0 = no damage; for pest or weed control at 250 g/ha: Alopecurus myosuroides, 312 h. The procedure, abridged:
(§3)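 Visual damage scores (0 = undamaged, top = plant totally killed) were taken 13 days after spraying. Treatment was given one day after sowing or at day 8 of cultivation, under 24/16° C. glasshouse conditions.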

Test [3] relates to Echinochloa crus-galli (ECHCG). As to the kind of experiment: Pre-emergence herbicidal glasshouse test, Echinochloa crus-galli. Particulars: rate 250 g/ha, evaluated after 13 days, scale 100 = total damage to plant, 0 = no damage; for pest or weed control at 250 g/ha: Echinochloa crus-galli, 312 h. Put shortly: as §3
The subject of test [4] is Avena fatua (AVEFA). As to the kind of experiment: Pre-emergence herbicidal glasshouse test, Avena fatua. The note with it: rate 250 g/ha, evaluated after 13 days, scale 100 = total damage to plant, 0 = no damage; for pest or weed control at 250 g/ha: Avena fatua, 312 h. The procedure, abridged:
as §3

Test [5] relates to Setaria faberi (SETFA). As to the kind of experiment: Post-emergence herbicidal glasshouse test, Setaria faberi. Particulars: rate 250 g/ha, evaluated after 13 days, scale 100 = total damage to plant, 0 = no damage; for pest or weed control at 250 g/ha: Setaria faberi, 312 h. As for the experimental part: as §1, §2
Test [6] concerns Alopecurus myosuroides (ALOMY). Put plainly: Post-emergence herbicidal glasshouse test, Alopecurus myosuroides. Particulars: rate 250 g/ha, evaluated after 13 days, scale 100 = total damage to plant, 0 = no damage; for pest or weed control at 250 g/ha: Alopecurus myosuroides, 312 h. Put shortly:
as §3

Test [7] concerns Echinochloa crus-galli (ECHCG). As to the kind of experiment: Post-emergence herbicidal glasshouse test, Echinochloa crus-galli. The note with it: rate 250 g/ha, evaluated after 13 days, scale 100 = total damage to plant, 0 = no damage; for pest or weed control at 250 g/ha: Echinochloa crus-galli, 312 h. The procedure, abridged:
as §3

The subject of test [8] is Avena fatua (AVEFA). As to the kind of experiment: Post-emergence herbicidal glasshouse test, Avena fatua. The note with it: rate 250 g/ha, evaluated after 13 days, scale 100 = total damage to plant, 0 = no damage; for pest or weed control at 250 g/ha: Avena fatua, 312 h. Put shortly: as §3

SMILES strings stand for the structures.

In general, pest or weed control refers to the degree to which the test organism was suppressed or injured, in per cent. Low values mean a weak effect, high ones a strong effect. Turning to `CCc1cc(-c2ccccc2)ccc1C1=C(O)[C@@]2(C)CC[C@H](O2)C1=O` (racemic) [Compound A-4], the pest or weed control at 250 g/ha in the test with Setaria faberi (SETFA) [1] stood at 20%; in test [2], 40%; in test [3], 40%; in the test on Avena fatua (AVEFA) [4], 0%; with Setaria faberi (SETFA) [5] it was 60%; in test [6] it was 80%. Further, the pest or weed control at 250 g/ha was 80% in test [7] and 0% in the test with Avena fatua (AVEFA) [8].

Regarding `CCc1cc(-c2ccc(Cl)c(F)c2F)ccc1C1=C(O)[C@@]2(C)CC[C@H](O2)C1=O` (racemic) [Compound A-30], the pest or weed control at 250 g/ha with Setaria faberi (SETFA) [1] came to 0%; in test [2], 0%; in test [3], 0%; in the test on Avena fatua (AVEFA) [4], 0%; in the test with Setaria faberi (SETFA) [5] it was 90%; in test [6], 30%. Further, the pest or weed control at 250 g/ha in test [7] amounted to 50%; in the test on Avena fatua (AVEFA) [8] it was 0%.

Consider `CCc1cc(-c2ccc(Cl)c(OC)c2)ccc1C1=C(O)[C@@]2(C)CC[C@H](O2)C1=O` [Compound A-20], for which the pest or weed control at 250 g/ha with Setaria faberi (SETFA) [1] was found to be 80%; in test [2], 70%; in test [3], 70%; in the test on Avena fatua (AVEFA) [4] it was 40%; in the test on Setaria faberi (SETFA) [5], 90%; in test [6], 90%. Further, the pest or weed control at 250 g/ha in test [7] worked out at 100%; in the test on Avena fatua (AVEFA) [8], 70%.

In the case of `Cc1cc(-c2ccccc2)cc(C)c1C1=C(O)[C@@]2(C)C=C[C@H](O2)C1=O` [Compound A-3], the “damage to plant SETFA, pre-emergence activity” value with Setaria faberi (SETFA) [1] is 90. Also, the “damage to plant ALOMY, pre-emergence activity” value in test [2] amounted to 0. In test [3], the “damage to plant ECHCG, pre-emergence activity” value is given as 70. In addition, the “damage to plant AVEFA, pre-emergence activity” value in the test with Avena fatua (AVEFA) [4] is given as 20. For the same compound, the “damage to plant SETFA, post-emergence activity” value in the test on Setaria faberi (SETFA) [5] came out at 100. Also, the “damage to plant ALOMY, post-emergence activity” value in test [6] came to 70. Moreover, the “damage to plant ECHCG, post-emergence activity” value in test [7] amounted to 100. The “damage to plant AVEFA, post-emergence activity” value with Avena fatua (AVEFA) [8] is reported as 0.

Turning to `CCc1cc(-c2ccc(Cl)cc2)ccc1C1=C(O)[C@@]2(C)C=C[C@H](O2)C1=O` [Compound A-7], the pest or weed control at 250 g/ha came to 0% with Setaria faberi (SETFA) [1]; 0% in test [2]; 0% in test [3]; 0% in the test on Avena fatua (AVEFA) [4]; 100% in the test with Setaria faberi (SETFA) [5]; 60% in test [6]. For the same compound, the pest or weed control at 250 g/ha turned out to be 100% in test [7] and 30% in the test with Avena fatua (AVEFA) [8].

For the compound `CCOC[C@]12CC[C@H](O1)C(=O)C(c1ccc(-c3ccc(Cl)cc3)cc1CC)=C2O` [Compound A-33], the pest or weed control at 250 g/ha in the test with Setaria faberi (SETFA) [1] was found to be 30%; in test [2] it was 20%; in test [3], 60%; in the test with Avena fatua (AVEFA) [4], 40%; with Setaria faberi (SETFA) [5] it was 100%; in test [6], 90%. The pest or weed control at 250 g/ha was determined as 100% in test [7] and 80% with Avena fatua (AVEFA) [8].

`CCc1cc(-c2ccc(Cl)c(F)c2)ccc1C1=C(O)[C@@]2(C)CC[C@H](O2)C1=O` (racemic) [Compound A-24]: the pest or weed control at 250 g/ha in the test with Setaria faberi (SETFA) [1] was found to be 90%; in test [2], 70%; in test [3] it was 100%; with Avena fatua (AVEFA) [4], 60%; in the test on Setaria faberi (SETFA) [5], 100%; in test [6] it was 90%. The values for the pest or weed control at 250 g/ha (in test [7]; in the test with Avena fatua (AVEFA) [8]) were 100% and 80%, respectively.

Regarding `CCc1cc(-c2ccc(Cl)cc2C)ccc1C1=C(O)[C@@]2(C)CC[C@H](O2)C1=O` [Compound A-16], the pest or weed control at 250 g/ha with Setaria faberi (SETFA) [1] stood at 50%; in test [2], 0%; in test [3], 0%; in the test with Avena fatua (AVEFA) [4], 0%; with Setaria faberi (SETFA) [5], 80%; in test [6], 90%. Besides, the figures for the pest or weed control at 250 g/ha (in test [7]; in the test on Avena fatua (AVEFA) [8]) were 20% and 0%, respectively.

Turning to `CCc1cc(-c2ccc(Cl)cc2)ccc1C1=C(O)[C@@]2(C)CC[C@H](O2)C1=O` (racemic) [Compound A-5], the pest or weed control at 250 g/ha in the test with Setaria faberi (SETFA) [1] was determined as 70%; in test [2], 30%; in test [3], 40%; with Avena fatua (AVEFA) [4], 0%; in the test with Setaria faberi (SETFA) [5], 100%; in test [6], 90%. Also, the figures for the pest or weed control at 250 g/ha (in test [7]; in the test with Avena fatua (AVEFA) [8]) were 100% and 70%, respectively.

With `Cc1cc(-c2ccccc2)cc(C)c1C1=C(O)[C@@]2(C)C=C[C@H](O2)C1=O` [Compound A-2], the “damage to plant SETFA, pre-emergence activity” value in the test with Setaria faberi (SETFA) [1] was 60. In addition, in test [2], the “damage to plant ALOMY, pre-emergence activity” value was determined as 50. Besides, the pest or weed control at 250 g/ha in test [3] is 70%; in the test on Avena fatua (AVEFA) [4], 20%; with Setaria faberi (SETFA) [5] it was 80%; in test [6], 90%; in test [7], 100%; in the test with Avena fatua (AVEFA) [8] it was 0%.

`CCc1cc(-c2ccc(Cl)cc2)ccc1C1=C(OC(C)=O)[C@@H]2CC[C@@](C)(O2)C1=O` (racemic) [Compound D-1]: the pest or weed control at 250 g/ha came out at 80% in the test with Setaria faberi (SETFA) [1]; 60% in test [2]; 70% in test [3]; 40% in the test on Avena fatua (AVEFA) [4]; 100% with Setaria faberi (SETFA) [5]; 90% in test [6]. In addition, the pest or weed control at 250 g/ha in test [7] turned out to be 100%; in the test with Avena fatua (AVEFA) [8] it was 80%.

Regarding `CCc1cc(-c2ccc(F)cc2)ccc1C1=C(O)[C@@]2(C)CC[C@H](O2)C1=O` [Compound A-18], the pest or weed control at 250 g/ha in the test with Setaria faberi (SETFA) [1] turned out to be 100%; in test [2], 90%; in test [3], 100%; in the test with Avena fatua (AVEFA) [4], 70%; in the test on Setaria faberi (SETFA) [5], 100%; in test [6], 100%. Besides, the pest or weed control at 250 g/ha amounted to 100% in test [7] and 90% in the test with Avena fatua (AVEFA) [8].

With `CCc1cc(-c2c(F)cc(Cl)cc2F)ccc1C1=C(O)[C@@]2(C)CC[C@H](O2)C1=O` (racemic) [Compound A-27], the pest or weed control at 250 g/ha in the test on Setaria faberi (SETFA) [1] was 30%; in test [2], 20%; in test [3], 40%; in the test with Avena fatua (AVEFA) [4] it was 0%; in the test on Setaria faberi (SETFA) [5] it was 100%; in test [6], 90%. Besides, the pest or weed control at 250 g/ha in test [7] worked out at 100%; with Avena fatua (AVEFA) [8] it was 70%.

Turning to `CCc1cc(-c2ccc(Cl)c(F)c2Cl)ccc1C1=C(O)[C@@]2(C)CC[C@H](O2)C1=O` (racemic) [Compound A-29], the pest or weed control at 250 g/ha came out at 50% in the test on Setaria faberi (SETFA) [1]; 30% in test [2]; 40% in test [3]; 50% with Avena fatua (AVEFA) [4]; 100% in the test with Setaria faberi (SETFA) [5]; 90% in test [6]. Also, the figures for the pest or weed control at 250 g/ha (in test [7]; in the test on Avena fatua (AVEFA) [8]) were 100% and 60%, respectively.

On to `CCc1cc(-c2ccc(C)cc2)ccc1C1=C(O)[C@@]2(C)CC[C@H](O2)C1=O` (racemic) [Compound A-6], for which the pest or weed control at 250 g/ha with Setaria faberi (SETFA) [1] stood at 0%; in test [2], 0%; in test [3] it was 0%; with Avena fatua (AVEFA) [4], 0%; in the test with Setaria faberi (SETFA) [5], 80%; in test [6], 70%. In addition, the pest or weed control at 250 g/ha in test [7] was determined as 80%; in the test with Avena fatua (AVEFA) [8], 30%.

Take `CCc1cc(-c2ccc(Cl)s2)ccc1C1=C(O)[C@@]2(C)CC[C@H](O2)C1=O` [Compound A-23]: the pest or weed control at 250 g/ha in the test with Setaria faberi (SETFA) [1] was 60%; in test [2] it was 60%; in test [3] it was 50%; in the test with Avena fatua (AVEFA) [4], 40%; in the test on Setaria faberi (SETFA) [5], 80%; in test [6], 90%. The pest or weed control at 250 g/ha came to 100% in test [7] and 30% with Avena fatua (AVEFA) [8].

(Values after US8895761B2, “4-phenylpyrane-3,5-diones, 4-phenylthiopyrane-3,5-diones and 2-phenylcyclohexane-1,3,5-triones as herbicides” (Syngenta Limited, priority 2007, dated 2014).)
